# Measured values: ChEMBL document CHEMBL2321738, “Metabolites of the pyrimidine amine preladenant as adenosine a2a receptor antagonists” (ACS Med Chem Lett, 2013)
# pKi: −log10 of the molar value.
# Target: Adenosine receptor A2a (Homo sapiens, UniProt P29274)
# Experiment: Binding affinity to human adenosine A2a receptor by competition binding assay
# Sequence of Adenosine receptor A2a (P29274 whole entry): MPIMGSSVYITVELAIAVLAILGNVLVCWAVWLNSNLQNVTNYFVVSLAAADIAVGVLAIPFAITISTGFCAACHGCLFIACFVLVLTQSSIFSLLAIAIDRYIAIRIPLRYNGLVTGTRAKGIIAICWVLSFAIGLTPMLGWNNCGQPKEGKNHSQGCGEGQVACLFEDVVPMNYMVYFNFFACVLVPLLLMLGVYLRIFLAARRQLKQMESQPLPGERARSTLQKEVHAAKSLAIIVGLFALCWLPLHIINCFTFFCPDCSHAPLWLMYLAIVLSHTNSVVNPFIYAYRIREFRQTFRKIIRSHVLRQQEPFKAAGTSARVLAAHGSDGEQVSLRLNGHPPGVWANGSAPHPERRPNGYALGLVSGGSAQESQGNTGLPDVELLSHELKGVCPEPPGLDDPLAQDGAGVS
smiles,measurement,value
COCCOc1ccc(N2CCN(CCn3ncc4c3nc(N)n3nc(C(O)CCC(=O)O)nc43)CC2)cc1 (centres undefined),pKi,< 6.00
Nc1nc2c(cnn2CC(=O)O)c2nc(-c3ccco3)nn12,pKi,< 6.00
Nc1nc2c(cnn2CCN2CCN(c3ccc(OCC(=O)O)cc3)CC2)c2nc(-c3ccco3)nn12,pKi,8.85
Nc1nc2c(cnn2CCN2CCN(c3ccc(OCC(=O)O)cc3)CC2)c2nc(C(O)CCC(=O)O)nn12 (centres undefined),pKi,< 6.00
